Target: T1, KRas-G12D (Homo sapiens, UniProt P01116, G12D)
T1 construct: insert the HiBiT tag onto the N-terminus of one or more of the endogenous KRas alleles; host or cells: AsPC-1 HiBiT-KRasG12D knock-in clone (one tagged allele, two untagged KRasG12D alleles)
Assay: HiBiT Degradation Assay (G12D), AsPC-1 HiBiT-KRasG12D cells, 24 hr
Type: cell-based
Conditions: for Dmax: ASPC1, AsPC-1 cells, maximum degradation observed; for DC50: AsPC-1 cells
In short: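 Degradation was read after 24 hr compound exposure (0.5% DMSO, 37° C) by Nano-Glo HiBiT lytic luminescence in AsPC-1 cells carrying a HiBiT tag on one of three KRasG12D alleles. Signal relative to DMSO gave DC50 and Dmax by 4-parameter fit; alamar blue fluorescence monitored cytotoxicity.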

T1 sequence (P01116 1-188 isoform P01116-2 G12D): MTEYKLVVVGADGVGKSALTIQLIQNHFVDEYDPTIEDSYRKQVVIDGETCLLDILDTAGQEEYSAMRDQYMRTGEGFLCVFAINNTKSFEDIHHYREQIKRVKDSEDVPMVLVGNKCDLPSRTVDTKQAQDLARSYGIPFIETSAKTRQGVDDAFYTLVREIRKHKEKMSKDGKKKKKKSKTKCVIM

## C#Cc1c(F)ccc2cc(O)cc(-c3ncc4c(N5CC6CCC(C5)N6)nc(OCCN5CCC(CN6CCC(CC7CCN(c8ccc9c(c8F)CN(C8CCC(=O)NC8=O)C9=O)CC7)CC6)CC5)nc4c3F)c12 (stereo not shown) [Compound 88, 3-{5-[4-({1-[(1-{2-[(4-{3,8-diazabicyclo[3.2.1]octan-3-yl}-7-(8-ethynyl-7-fluoro-3-hydroxynaphthalen-1-yl)-8-fluoropyrido[4,3-d]pyrimidin-2-yl)oxy]ethyl}piperidin-4-yl)methyl]piperidin-4-yl}methyl)piperidin-1-yl]-4-fluoro-1-oxo-2,3-dihydro-1H-isoindol-2-yl}piperidine-2,6-dione]
  Dmax: > 70%
  DC50: < 5.1 µM

## C#Cc1c(F)ccc2cc(O)cc(-c3ncc4c(N5CC6CCC(C5)N6)nc(OCCN5CCC(CC6CCN(c7ccc8c(c7)n(C)c(=O)n8C7CCC(=O)NC7=O)CC6)CC5)nc4c3F)c12 (stereo not shown) [Compound 89, 3-(5-{4-[(1-{2-[(4-{3,8-diazabicyclo[3.2.1]octan-3-yl}-7-(8-ethynyl-7-fluoro-3-hydroxynaphthalen-1-yl)-8-fluoropyrido[4,3-d]pyrimidin-2-yl)oxy]ethyl}piperidin-4-yl)methyl]piperidin-1-yl}-3-methyl-2-oxo-2,3-dihydro-1H-1,3-benzodiazol-1-yl)piperidine-2,6-dione]
  Dmax: > 70%
  DC50: < 5.1 µM

## C#Cc1c(F)ccc2cc(O)cc(-c3ncc4c(N5CC6CCC(C5)N6)nc(OCCN5CCC(CC6(F)CCN(CC7CCN(c8ccc9c(c8)CN(C8CCC(=O)NC8=O)C9=O)CC7)CC6)CC5)nc4c3F)c12 (stereo not shown) [Compound 90, 3-{5-[4-({4-[(1-{2-[(4-{3,8-diazabicyclo[3.2.1]octan-3-yl}-7-(8-ethynyl-7-fluoro-3-hydroxynaphthalen-1-yl)-8-fluoropyrido[4,3-d]pyrimidin-2-yl)oxy]ethyl}piperidin-4-yl)methyl]-4-fluoropiperidin-1-yl}methyl)piperidin-1-yl]-1-oxo-2,3-dihydro-1H-isoindol-2-yl}piperidine-2,6-dione]
  DC50: > 1 µM

## C#Cc1c(F)ccc2cc(O)cc(-c3ncc4c(N5CC6CCC(C5)N6)nc(OCCN5CCC(F)(CC6CCN(CC7CCN(c8ccc9c(c8)CN(C8CCC(=O)NC8=O)C9=O)CC7)CC6)CC5)nc4c3F)c12 (stereo not shown) [Compound 91, 3-[5-[4-[[4-[[1-[2-[4-(3,8-diazabicyclo [3.2.1]octan-3-yl)-7-(8-ethynyl-7-fluoro-3-hydroxy-1-naphthyl)-8-fluoro-pyrido[4,3-d]pyrimidin-2-yl]oxyethyl]-4-fluoro-4-piperidyl]methyl]-1-piperidyl]methyl]-1-piperidyl]-1-oxo-isoindolin-2-yl]piperidine-2,6-dione]
  Dmax: > 70%
  DC50: < 5.1 µM

## C#Cc1c(F)ccc2cc(O)cc(-c3ncc4c(N5CC6CCC(C5)N6)nc(OCCN5CCC(CN6CCC7(CC6)CCN(c6ccc8c(c6F)CN(C6CCC(=O)NC6=O)C8=O)CC7)CC5)nc4c3F)c12 (stereo not shown) [Compound 92, 3-(5-{9-[(1-{2-[(4-{3,8-diazabicyclo[3.2.1]octan-3-yl}-7-(8-ethynyl-7-fluoro-3-hydroxynaphthalen-1-yl)-8-fluoropyrido[4,3-d]pyrimidin-2-yl)oxy]ethyl}piperidin-4-yl)methyl]-3,9-diazaspiro[5.5]undecan-3-yl}-4-fluoro-1-oxo-2,3-dihydro-1H-isoindol-2-yl)piperidine-2,6-dione]
  Dmax: > 70%
  DC50: < 5.1 µM

## C#Cc1c(F)ccc2cc(O)cc(-c3ncc4c(N5CC6CCC(C5)N6)nc(OCCN5CCC(CN6CCC7(CC6)CCN(c6ccc8c(c6)CN(C6CCC(=O)NC6=O)C8=O)CC7)CC5)nc4c3F)c12 (stereo not shown) [Compound 93, 3-(5-{9-[(1-{2-[(4-{3,8-diazabicyclo[3.2.1]octan-3-yl}-7-(8-ethynyl-7-fluoro-3-hydroxynaphthalen-1-yl)-8-fluoropyrido[4,3-d]pyrimidin-2-yl)oxy]ethyl}piperidin-4-yl)methyl]-3,9-diazaspiro[5.5]undecan-3-yl}-1-oxo-2,3-dihydro-1H-isoindol-2-yl)piperidine-2,6-dione]
  Dmax: > 70%
  DC50: < 5.1 µM

## C#Cc1c(F)ccc2cc(O)cc(-c3ncc4c(N5CC6CCC(C5)N6)nc(OCCN5CCC(CC6CCN(CC7CCN(c8cccc9c8n(C(C)C)c(=O)n9C8CCC(=O)NC8=O)CC7)CC6)CC5)nc4c3F)c12 (stereo not shown) [Compound 94, 3-{4-[4-({4-[(1-{2-[(4-{3,8-diazabicyclo[3.2.1]octan-3-yl}-7-(8-ethynyl-7-fluoro-3-hydroxynaphthalen-1-yl)-8-fluoropyrido[4,3-d]pyrimidin-2-yl)oxy]ethyl}piperidin-4-yl)methyl]piperidin-1-yl}methyl)piperidin-1-yl]-2-oxo-3-(propan-2-yl)-2,3-dihydro-1H-1,3-benzodiazol-1-yl}piperidine-2,6-dione]
  Dmax: > 70%
  DC50: < 5.1 µM

## C#Cc1c(F)ccc2cc(O)cc(-c3ncc4c(N5CC6CCC(C5)N6)nc(OC[C@@H]5C[C@@H](OC6CCN(CC7CCN(c8ccc9c(c8)n(C(C)C)c(=O)n9C8CCC(=O)NC8=O)CC7)CC6)CN5C)nc4c3F)c12 (stereo partly drawn) [Compound 95, 3-(5-{4-[(4-{[(3R,5S)-5-{[(4-{3,8-diazabicyclo[3.2.1]octan-3-yl}-7-(8-ethynyl-7-fluoro-3-hydroxynaphthalen-1-yl)-8-fluoropyrido[4,3-d]pyrimidin-2-yl)oxy]methyl}-1-methylpyrrolidin-3-yl]oxy}piperidin-1-yl)methyl]piperidin-1-yl}-2-oxo-3-(propan-2-yl)-2,3-dihydro-1H-1,3-benzodiazol-1-yl)piperidine-2,6-dione]
  Dmax: > 70%
  DC50: < 5.1 µM

## C#Cc1c(F)ccc2cc(O)cc(-c3ncc4c(N5CC6CCC(C5)N6)nc(OC[C@@H]5C[C@@H](OC6CCN(CC7CCN(c8ccc9c(c8)n(C)c(=O)n9C8CCC(=O)NC8=O)CC7)CC6)CN5C)nc4c3F)c12 (stereo partly drawn) [Compound 96, 3-(5-{4-[(4-{[(3R,5S)-5-{[(4-{3,8-diazabicyclo[3.2.1]octan-3-yl}-7-(8-ethynyl-7-fluoro-3-hydroxynaphthalen-1-yl)-8-fluoropyrido[4,3-d]pyrimidin-2-yl)oxy]methyl}-1-methylpyrrolidin-3-yl]oxy}piperidin-1-yl)methyl]piperidin-1-yl}-3-methyl-2-oxo-2,3-dihydro-1H-1,3-benzodiazol-1-yl)piperidine-2,6-dione]
  Dmax: > 70%
  DC50: < 5.1 µM

## C#Cc1c(F)ccc2cc(O)cc(-c3ncc4c(N5CC6CCC(C5)N6)nc(OCCN5CCC(CC6CCN(CC7CCN(c8ccc9c(c8)CN(C8(C)CCC(=O)NC8=O)C9=O)CC7)CC6)CC5)nc4c3F)c12 (stereo not shown) [Compound 97]
  DC50: > 1 µM

## C#Cc1c(F)ccc2cc(O)cc(-c3ncc4c(N5CC6CCC(C5)N6)nc(OCCN5CCC(CC6CCN(CC7CCN(c8ccc9c(c8)n(C(C)C)c(=O)n9C8CCC(=O)NC8=O)CC7)CC6)CC5)nc4c3F)c12 (stereo not shown) [Compound 98, 3-{5-[4-({4-[(1-{2-[(4-{3,8-diazabicyclo[3.2.1]octan-3-yl}-7-(8-ethynyl-7-fluoro-3-hydroxynaphthalen-1-yl)-8-fluoropyrido[4,3-d]pyrimidin-2-yl)oxy]ethyl}piperidin-4-yl)methyl]piperidin-1-yl}methyl)piperidin-1-yl]-2-oxo-3-(propan-2-yl)-2,3-dihydro-1H-1,3-benzodiazol-1-yl}piperidine-2,6-dione]
  Dmax: > 70%
  DC50: < 5.1 µM

## C#Cc1c(F)ccc2cc(O)cc(-c3ncc4c(N5CC6CCC(C5)N6)nc(OCC5(CN6CCC(CC7CCN(c8ccc9c(c8)CN(C8CCC(=O)NC8=O)C9=O)CC7)CC6)CC5)nc4c3F)c12 (stereo not shown) [Compound 99, 3-{5-[4-({1-[(1-{[(4-{3,8-diazabicyclo[3.2.1]octan-3-yl}-7-(8-ethynyl-7-fluoro-3-hydroxynaphthalen-1-yl)-8-fluoropyrido[4,3-d]pyrimidin-2-yl)oxy]methyl}cyclopropyl)methyl]piperidin-4-yl}methyl)piperidin-1-yl]-1-oxo-2,3-dihydro-1H-isoindol-2-yl}piperidine-2,6-dione]
  Dmax: > 70%
  DC50: < 5.1 µM

## C#Cc1c(F)ccc2cc(O)cc(-c3ncc4c(N5CC6CCC(C5)N6)nc(OC[C@@]56CCCN5[C@H](CN5CCN(CC7CCN(c8ccc9c(c8)CN(C8CCC(=O)NC8=O)C9=O)CC7)CC5)CC6)nc4c3F)c12 (stereo partly drawn) [Compound 100, 3-(5-{4-[(4-{[(3S,7aS)-7a-{[(4-{3,8-diazabicyclo[3.2.1]octan-3-yl}-7-(8-ethynyl-7-fluoro-3-hydroxynaphthalen-1-yl)-8-fluoropyrido[4,3-d]pyrimidin-2-yl)oxy]methyl}-hexahydro-1H-pyrrolizin-3-yl]methyl}piperazin-1-yl)methyl]piperidin-1-yl}-1-oxo-2,3-dihydro-1H-isoindol-2-yl)piperidine-2,6-dione]
  Dmax: > 70%
  DC50: < 5.1 µM

## C#Cc1c(F)ccc2cc(O)cc(-c3ncc4c(N5CC6CCC(C5)N6)nc(OCCN5CCC(CN6CCN(CC7CCN(c8ccc9c(c8F)CN(C8CCC(=O)NC8=O)C9=O)CC7)CC6)CC5)nc4c3F)c12 (stereo not shown) [Compound 101, 3-[5-[4-[[4-[[1-[2-[4-(3,8-diazabicyclo[3.2.1]octan-3-yl)-7-(8-ethynyl-7-fluoro-3-hydroxy-1-naphthyl)-8-fluoro-pyrido[4,3-d]pyrimidin-2-yl]oxyethyl]-4-piperidyl]methyl]piperazin-1-yl]methyl]-1-piperidyl]-4-fluoro-1-oxo-isoindolin-2-yl]piperidine-2,6-dione]
  Dmax: > 70%
  DC50: < 5.1 µM

## C#Cc1c(F)ccc2cc(O)cc(-c3ncc4c(N5CC6CCC(C5)N6)nc(OC[C@@H]5C[C@@H](OC6CCN(c7ccc8c(c7F)CN(C7CCC(=O)NC7=O)C8=O)CC6)CN5C)nc4c3F)c12 (stereo partly drawn) [Compound 103, 3-[5-(4-{[(3R,5S)-5-{[(4-{3,8-diazabicyclo[3.2.1]octan-3-yl}-7-(8-ethynyl-7-fluoro-3-hydroxynaphthalen-1-yl)-8-fluoropyrido[4,3-d]pyrimidin-2-yl)oxy]methyl}-1-methylpyrrolidin-3-yl]oxy}piperidin-1-yl)-4-fluoro-1-oxo-2,3-dihydro-1H-isoindol-2-yl]piperidine-2,6-dione]
  Dmax: > 70%
  DC50: < 5.1 µM

Reference: patent US12448399B2, “Cereblon-based KRAS degrading PROTACs and uses related thereto” (Arvinas Operations, Inc., priority 2023, dated 2025)
